Experiments:
HT-29 = assay: Cytotoxicity against human HT-29 cells assessed as reduction in cell viability measured after 48 hrs by AlamarBlue assay; assay type: functional, cell-based; details: HT-29, 48 h
HSP60/HSP10 = HSP60/HSP10 (Homo sapiens, UniProt P10809); assay: Inhibition of human mitochondrial HSP60/10-mediated refolding of the denatured malate dehydrogenase; assay type: mitochondria, Mitochondria
FHC = assay: Cytotoxicity against human FHC cells assessed as reduction in cell viability measured after 48 hrs by AlamarBlue assay; assay type: cell-based
[1] = Cytotoxicity against human THLE-3 cells assessed as reduction in cell viability measured after 48 hrs by AlamarBlue assay; assay type: cell-based; details: for CC50 at 48 h: THLE-3 cells
[2] = (§1) Cytotoxicity against human HEK293 cells assessed as reduction in cell viability measured after 48 hrs by AlamarBlue assay; assay type: cell-based; details: HEK293 cells
E. coli GroEL/ES [3] = target: T1, E. coli GroEL/ES (Escherichia coli, UniProt P0A6F5); assay: Inhibition of Escherichia coli GroEL/ES-mediated refolding of the denatured malate dehydrogenase; assay type: protein-complex assay
T1 sequence (P0A6F5 whole entry, looked up): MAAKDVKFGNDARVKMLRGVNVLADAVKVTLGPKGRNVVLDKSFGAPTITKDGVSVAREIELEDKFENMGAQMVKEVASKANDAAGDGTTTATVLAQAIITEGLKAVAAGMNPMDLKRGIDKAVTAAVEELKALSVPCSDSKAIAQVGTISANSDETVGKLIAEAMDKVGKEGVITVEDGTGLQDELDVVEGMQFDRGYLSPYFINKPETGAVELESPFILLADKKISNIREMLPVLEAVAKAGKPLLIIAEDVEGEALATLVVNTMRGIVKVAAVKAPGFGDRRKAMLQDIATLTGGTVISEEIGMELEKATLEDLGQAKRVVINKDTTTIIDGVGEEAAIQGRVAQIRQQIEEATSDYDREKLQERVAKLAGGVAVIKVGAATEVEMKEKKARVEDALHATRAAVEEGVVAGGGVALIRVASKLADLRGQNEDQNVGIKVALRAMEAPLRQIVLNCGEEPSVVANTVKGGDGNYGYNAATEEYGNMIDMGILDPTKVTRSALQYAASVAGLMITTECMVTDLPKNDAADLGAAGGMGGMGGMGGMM

DLD-1 = assay: Cytotoxicity against human DLD-1 cells assessed as reduction in cell viability measured after 48 hrs by AlamarBlue assay; assay type: functional, cell-based; details: DLD-1, 48 h
[4] = Inhibition of refolded MDH (unknown origin)-mediated oxidation of NADPH in presence of mesoxalic acid treated with compound after refolding of the denatured enzyme; parameters: species or system Homo sapiens
HCT-116 = assay: Cytotoxicity against human HCT-116 cells assessed as reduction in cell viability measured after 48 hrs by AlamarBlue assay; assay type: functional, cell-based; details: HCT-116, 48 h
[5] = Cytotoxicity against human FHs74Int cells assessed as reduction in cell viability measured after 48 hrs by AlamarBlue assay; assay type: cell-based
E. coli GroEL/ES [6] = target: T1, E. coli GroEL/ES; assay: Inhibition of Escherichia coli GroEL/ES-mediated refolding of the denatured rhodanese; assay type: protein-complex assay
[7] = target: T2, Thiosulfate sulfurtransferase (Homo sapiens, UniProt Q16762); assay: Inhibition of refolded Rhodanese (unknown origin)-mediated conversion of cyanide to thiocyanate treated with compound after refolding of the denatured enzyme
T2 sequence (Q16762 whole entry): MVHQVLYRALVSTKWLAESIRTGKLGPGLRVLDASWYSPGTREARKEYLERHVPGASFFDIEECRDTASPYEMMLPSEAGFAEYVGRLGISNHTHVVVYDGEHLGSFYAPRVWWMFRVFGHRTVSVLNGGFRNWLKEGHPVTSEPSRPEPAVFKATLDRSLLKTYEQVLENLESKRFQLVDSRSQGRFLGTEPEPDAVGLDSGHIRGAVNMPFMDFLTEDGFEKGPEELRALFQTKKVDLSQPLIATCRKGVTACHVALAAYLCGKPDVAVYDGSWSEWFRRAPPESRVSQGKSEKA

HEK293 = assay: as §1; assay type: cell-based; details: hek293, 48 h

Sequence of HSP60/HSP10 (P10809 whole entry): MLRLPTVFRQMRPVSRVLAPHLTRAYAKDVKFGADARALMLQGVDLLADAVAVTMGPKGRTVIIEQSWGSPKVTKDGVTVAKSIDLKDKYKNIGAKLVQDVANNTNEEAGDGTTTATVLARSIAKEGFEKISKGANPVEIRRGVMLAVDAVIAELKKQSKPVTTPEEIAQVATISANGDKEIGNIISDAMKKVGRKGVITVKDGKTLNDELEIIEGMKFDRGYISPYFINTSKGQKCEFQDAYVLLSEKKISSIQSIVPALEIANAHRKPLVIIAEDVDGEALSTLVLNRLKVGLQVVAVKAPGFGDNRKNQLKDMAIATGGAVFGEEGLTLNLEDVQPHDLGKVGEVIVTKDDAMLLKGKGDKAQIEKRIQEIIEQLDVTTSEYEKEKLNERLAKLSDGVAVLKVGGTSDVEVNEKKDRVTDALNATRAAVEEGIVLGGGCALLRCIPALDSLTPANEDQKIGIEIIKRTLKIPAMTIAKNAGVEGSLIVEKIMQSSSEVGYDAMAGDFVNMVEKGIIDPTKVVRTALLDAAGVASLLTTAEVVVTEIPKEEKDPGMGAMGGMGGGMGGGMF
Sequence of HSP60/HSP10 (P61604 whole entry, further chain): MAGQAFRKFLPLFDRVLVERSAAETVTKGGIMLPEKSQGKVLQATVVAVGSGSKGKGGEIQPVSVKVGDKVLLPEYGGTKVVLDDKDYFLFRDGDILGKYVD

## O=S(=O)(Nc1ccc(-c2nc3cc(NS(=O)(=O)c4ccc(Cl)s4)ccc3o2)cc1)c1ccc(Cl)s1
HT-29
  EC50: 33 µM
HSP60/HSP10
  IC50: 6.5 µM
FHC
  CC50: 43 µM
[1]
  CC50 at 48 h: 48 µM
[2]
  CC50 at 48 h: 41 µM
E. coli GroEL/ES [3]
  IC50: 2.8 µM
DLD-1
  EC50: 33 µM
[4]
  IC50: 57 µM
HCT-116
  EC50: 15 µM
[5]
  CC50: 65 µM

## O=S(=O)(Nc1ccc(-c2nc3cc(NS(=O)(=O)c4ccccc4)ccc3o2)cc1)c1ccccc1
E. coli GroEL/ES [6]
  IC50: 18 µM
HT-29
  EC50: 16 µM
[7]
  IC50: > 100 µM
HSP60/HSP10
  IC50: 86 µM
FHC
  CC50: 30 µM
[1]
  CC50 at 48 h: 23 µM
[2]
  CC50 at 48 h: 25 µM
DLD-1
  EC50: 16 µM
[4]
  IC50: > 62.5 µM
HCT-116
  EC50: 13 µM
[5]
  CC50: > 100 µM

## Nc1ccc(S(=O)(=O)Nc2ccc(-c3nc4cc(NS(=O)(=O)c5ccc(N)cc5)ccc4o3)cc2)cc1
E. coli GroEL/ES [6]
  IC50: 3.1 µM
HT-29
  EC50: 24 µM
[7]
  IC50: > 100 µM
HSP60/HSP10
  IC50: 44 µM
FHC
  CC50: 65 µM
[1]
  CC50 at 48 h: 39 µM
[2]
  CC50 at 48 h: 63 µM
DLD-1
  EC50: 47 µM
[4]
  IC50: > 62.5 µM
HCT-116
  EC50: 17 µM
[5]
  CC50: 53 µM

## Cc1ccc(S(=O)(=O)Nc2ccc(-c3nc4ccc(NS(=O)(=O)c5ccc(C)cc5)cc4[nH]3)cc2)cc1
E. coli GroEL/ES [6]
  IC50: 46 µM
HT-29
  EC50: 21 µM
[7]
  IC50: > 100 µM
HSP60/HSP10
  IC50: 79 µM
FHC
  CC50: > 100 µM
[1]
  CC50 at 48 h: 22 µM
[2]
  CC50 at 48 h: 38 µM
E. coli GroEL/ES [3]
  IC50: 24 µM
DLD-1
  EC50: 25 µM
[4]
  IC50: > 62.5 µM
HCT-116
  EC50: 14 µM
[5]
  CC50: 96 µM

## COc1ccc(S(=O)(=O)Nc2ccc3oc(-c4ccc(NC(=O)C5CCN(C(C)=O)CC5)cc4)nc3c2)cc1
E. coli GroEL/ES [6]
  IC50: 61 µM
HT-29
  EC50: 16 µM
[7]
  IC50: > 100 µM
HSP60/HSP10
  IC50: 24 µM
FHC
  CC50: > 100 µM
[1]; thle-3, 48 h
  CC50: 31 µM
HEK293
  CC50: 34 µM
E. coli GroEL/ES [3]
  IC50: 38 µM
DLD-1
  EC50: 15 µM
[4]
  IC50: > 62.5 µM
HCT-116
  EC50: 15 µM
[5]
  CC50: 84 µM

## O=C(Nc1ccc(Sc2nc3ccccc3s2)cc1)c1cc(Br)cc(Br)c1O
E. coli GroEL/ES [6]
  IC50: 2.2 µM
HT-29
  EC50: 21 µM
HSP60/HSP10
  IC50: 5.9 µM
FHC
  CC50: 74 µM
[1]
  CC50 at 48 h: 19 µM
[2]
  CC50 at 48 h: 69 µM
E. coli GroEL/ES [3]
  IC50: 3.2 µM
DLD-1
  EC50: 20 µM
[4]
  IC50: 6.6 µM
HCT-116
  EC50: 19 µM
[5]
  CC50: 75 µM

## O=S(=O)(Nc1ccc(-c2nc3cc(NS(=O)(=O)c4cccc(C(F)(F)F)c4)ccc3o2)cc1)c1cccc(C(F)(F)F)c1
HSP60/HSP10
  IC50: 54 µM
FHC
  CC50: 56 µM
[1]
  CC50 at 48 h: 24 µM
[2]
  CC50 at 48 h: 23 µM
E. coli GroEL/ES [3]
  IC50: 14 µM
[4]
  IC50: > 62.5 µM
HCT-116
  EC50: 14 µM
[5]
  CC50: > 100 µM

## O=C(Nc1ccc(Sc2nc3ccccc3s2)cc1)c1cccc(Br)c1O
E. coli GroEL/ES [6]
  IC50: 37 µM
HT-29
  EC50: 9.3 µM
HSP60/HSP10
  IC50: > 100 µM
FHC
  CC50: 59 µM
[1]
  CC50 at 48 h: 12 µM
[2]
  CC50 at 48 h: 33 µM
E. coli GroEL/ES [3]
  IC50: 42 µM
DLD-1
  EC50: 12 µM
[4]
  IC50: > 62.5 µM
HCT-116
  EC50: 8.9 µM
[5]
  CC50: 75 µM

## O=S(=O)(Nc1ccc(-c2nc3cc(NS(=O)(=O)c4ccc(Br)cc4)ccc3o2)cc1)c1ccc(Br)cc1
E. coli GroEL/ES [6]
  IC50: 34 µM
HT-29
  EC50: 17 µM
[7]
  IC50: > 100 µM
[1]
  CC50 at 48 h: 18 µM
[2]
  CC50 at 48 h: 22 µM
E. coli GroEL/ES [3]
  IC50: 16 µM
[4]
  IC50: > 62.5 µM
HCT-116
  EC50: 11 µM
[5]
  CC50: > 100 µM

## O=S(=O)(Nc1ccc(-c2nc3cc(NS(=O)(=O)c4ccc(Cl)s4)ccc3o2)cc1)c1ccc(Cl)c(C(F)(F)F)c1
E. coli GroEL/ES [6]
  IC50: 8.3 µM
HT-29
  EC50: 21 µM
HSP60/HSP10
  IC50: 6.7 µM
FHC
  CC50: 63 µM
[1]
  CC50 at 48 h: 21 µM
[2]
  CC50 at 48 h: 34 µM
E. coli GroEL/ES [3]
  IC50: 2.8 µM
[4]
  IC50: > 62.5 µM
HCT-116
  EC50: 17 µM
[5]
  CC50: 56 µM

Source: ChEMBL document CHEMBL4819133, “Exploiting the HSP60/10 chaperonin system as a chemotherapeutic target for colorectal cancer” (Bioorg Med Chem, 2021)
